System: not listed separately
Experiment: Acute toxicity in the hens fertile egg screening test (HEST).
Design: species or system Gallus gallus
Conditions: chicken

Row | Compound | LD50 [mg/kg]
1 | COc1c2c(c(O)c3c1C(=O)c1c(cc(O)c(C)c1O)C3=O)-c1c(cc(/C=N/NC(=S)NC3CCCCC3)c(C(=O)O)c1O)CC2 [MHL CYCLOHEXYLTHIOSEMICARBAZONE] | > 50

Target: T1, Steryl-sulfatase (Homo sapiens, UniProt P08842)
T1 sequence (P08842 whole entry): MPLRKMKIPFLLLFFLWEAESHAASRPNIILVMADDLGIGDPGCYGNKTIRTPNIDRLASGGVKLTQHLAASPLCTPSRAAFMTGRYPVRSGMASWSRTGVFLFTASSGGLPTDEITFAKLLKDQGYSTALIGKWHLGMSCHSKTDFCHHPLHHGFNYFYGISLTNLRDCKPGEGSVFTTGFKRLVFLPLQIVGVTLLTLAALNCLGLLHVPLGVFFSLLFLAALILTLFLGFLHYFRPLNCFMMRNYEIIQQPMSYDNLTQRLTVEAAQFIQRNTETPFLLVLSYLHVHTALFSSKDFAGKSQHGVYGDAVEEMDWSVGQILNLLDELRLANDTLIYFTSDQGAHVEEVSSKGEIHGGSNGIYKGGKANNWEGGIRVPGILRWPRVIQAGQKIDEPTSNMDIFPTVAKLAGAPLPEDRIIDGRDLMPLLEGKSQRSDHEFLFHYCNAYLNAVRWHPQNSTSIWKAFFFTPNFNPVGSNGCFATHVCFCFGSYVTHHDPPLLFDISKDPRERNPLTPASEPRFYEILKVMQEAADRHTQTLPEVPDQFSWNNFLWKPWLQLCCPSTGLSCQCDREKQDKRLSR
Experiment: Inhibitory activity againist Estrone sulfatase from MCF-7 cells ([…])
Format: cell-based, MCF7
Conditions: not given

Row | Compound | IC50 [µM]
2 | COc1c2c(c(O)c3c1C(=O)c1c(cc(O)c(C)c1O)C3=O)-c1c(cc(/C=N/N=C(\S)NC3CC3)c(C(=O)O)c1O)CC2 | 22
3 | COc1c2c(c(O)c3c1C(=O)c1c(cc(O)c(C)c1O)C3=O)-c1c(cc3c(c1O)C(=O)OC3O)CC2 (centres undefined) | 41
4 | CCC/N=C(\S)N/N=C/c1cc2c(c(O)c1C(=O)O)-c1c(O)c3c(c(OC)c1CC2)C(=O)c1c(cc(O)c(C)c1O)C3=O | 20
5 | CCCCCC/N=C(\S)N/N=C/c1cc2c(c(O)c1C(=O)O)-c1c(O)c3c(c(OC)c1CC2)C(=O)c1c(cc(O)c(C)c1O)C3=O | 8
6 | COc1c2c(c(O)c3c1C(=O)c1c(cc(O)c(C)c1O)C3=O)-c1c(cc(/C=N/N=C(\S)Nc3ccc(Cl)cc3)c(C(=O)O)c1O)CC2 | > 100
7 | COc1c2c(c(O)c3c1C(=O)c1c(cc(O)c(C)c1O)C3=O)-c1c(cc(/C=N/N=C(\S)N3CCCCC3)c(C(=O)O)c1O)CC2 | 8
8 | COc1c2c(c(O)c3c1C(=O)c1c(cc(O)c(C)c1O)C3=O)-c1c(cc(/C=N/N=C(\S)Nc3ccc(C)cc3)c(C(=O)O)c1O)CC2 | 12
9 | COc1c2c(c(O)c3c1C(=O)c1c(cc(O)c(C)c1O)C3=O)-c1c(cc(/C=N/N=C(\S)NC3CCCCCCC3)c(C(=O)O)c1O)CC2 | 15
10 | COc1c2c(c(O)c3c1C(=O)c1c(cc(O)c(C)c1O)C3=O)-c1c(cc(/C=N/NC(=O)Nc3ccccc3)c(C(=O)O)c1O)CC2 | > 100
11 | CCC(CC)/N=C(\S)N/N=C/c1cc2c(c(O)c1C(=O)O)-c1c(O)c3c(c(OC)c1CC2)C(=O)c1c(cc(O)c(C)c1O)C3=O | 18
12 | CCCC/N=C(\S)N/N=C/c1cc2c(c(O)c1C(=O)O)-c1c(O)c3c(c(OC)c1CC2)C(=O)c1c(cc(O)c(C)c1O)C3=O | 6
13 | Cc1cc(=O)oc2cc(OS(N)(=O)=O)ccc12 | 2.6
14 | COc1ccc(N/C(S)=N/N=C/c2cc3c(c(O)c2C(=O)O)-c2c(O)c4c(c(OC)c2CC3)C(=O)c2c(cc(O)c(C)c2O)C4=O)cc1 | 23
15 | COc1c2c(c(O)c3c1C(=O)c1c(cc(O)c(C)c1O)C3=O)-c1c(cc(/C=N/N=C(\S)Oc3ccccc3)c(C(=O)O)c1O)CC2 | > 100
16 | COc1c2c(c(O)c3c1C(=O)c1c(cc(O)c(C)c1O)C3=O)-c1c(cc(/C=N/N=C(\S)NN3CCCCC3)c(C(=O)O)c1O)CC2 | 6
17 | COc1c2c(c(O)c3c1C(=O)c1c(cc(O)c(C)c1O)C3=O)-c1c(cc(/C=N/N=C(\S)NC3CCCC3)c(C(=O)O)c1O)CC2 | 3.2
18 | CC/N=C(\S)N/N=C/c1cc2c(c(O)c1C(=O)O)-c1c(O)c3c(c(OC)c1CC2)C(=O)c1c(cc(O)c(C)c1O)C3=O | 16

Row | Compound | IC50 [µM]
19 | COc1c2c(c(O)c3c1C(=O)c1c(cc(O)c(C)c1O)C3=O)-c1c(cc(/C=N/NC(=O)NC3CCCCC3)c(C(=O)O)c1O)CC2 | 7
20 | COc1c2c(c(O)c3c1C(=O)c1c(cc(O)c(C)c1O)C3=O)-c1c(cc(/C=N/N=C(\S)NC3CCC(C)CC3)c(C(=O)O)c1O)CC2 (centres undefined) | 4
21 | COc1c2c(c(O)c3c1C(=O)c1c(cc(O)c(C)c1O)C3=O)-c1c(cc(/C=N/N=C(\S)NC(C)C)c(C(=O)O)c1O)CC2 | 24
22 | COc1c2c(c(O)c3c1C(=O)c1c(cc(O)c(C)c1O)C3=O)-c1c(cc(/C=N/NC(=S)NC3CCCCC3)c(C(=O)O)c1O)CC2 [MHL CYCLOHEXYLTHIOSEMICARBAZONE] | 0.46
23 | CN/C(S)=N/N=C/c1cc2c(c(O)c1C(=O)O)-c1c(O)c3c(c(OC)c1CC2)C(=O)c1c(cc(O)c(C)c1O)C3=O | 29
24 | COc1c2c(c(O)c3c1C(=O)c1c(cc(O)c(C)c1O)C3=O)-c1c(cc(/C=N/N=C(\S)NCC(C)C)c(C(=O)O)c1O)CC2 | 11
25 | COc1c2c(c(O)c3c1C(=O)c1c(cc(O)c(C)c1O)C3=O)-c1c(cc(/C=N/N=C(\S)NC3CCCCCC3)c(C(=O)O)c1O)CC2 | 1.8
26 | CCCCC/N=C(\S)N/N=C/c1cc2c(c(O)c1C(=O)O)-c1c(O)c3c(c(OC)c1CC2)C(=O)c1c(cc(O)c(C)c1O)C3=O | 13
27 | CCCCCCCCCCCC/N=C(\S)N/N=C/c1cc2c(c(O)c1C(=O)O)-c1c(O)c3c(c(OC)c1CC2)C(=O)c1c(cc(O)c(C)c1O)C3=O | 50
28 | COc1c2c(c(O)c3c1C(=O)c1c(cc(O)c(C)c1O)C3=O)-c1c(cc(/C=N/N=C(/N)S)c(C(=O)O)c1O)CC2 | > 100
29 | COc1c2c(c(O)c3c1C(=O)c1c(cc(O)c(C)c1O)C3=O)-c1c(cc(/C=N/NC(=O)Oc3ccccc3)c(C(=O)O)c1O)CC2 | > 100
30 | CCCCCCC/N=C(\S)N/N=C/c1cc2c(c(O)c1C(=O)O)-c1c(O)c3c(c(OC)c1CC2)C(=O)c1c(cc(O)c(C)c1O)C3=O | 9
31 | COc1c2c(c(O)c3c1C(=O)c1c(cc(O)c(C)c1O)C3=O)-c1c(cc(/C=N/N=C(\S)NC(C)(C)C)c(C(=O)O)c1O)CC2 | 25
32 | CCCCCCCCC/N=C(\S)N/N=C/c1cc2c(c(O)c1C(=O)O)-c1c(O)c3c(c(OC)c1CC2)C(=O)c1c(cc(O)c(C)c1O)C3=O | 19
33 | COc1c2c(c(O)c3c1C(=O)c1c(cc(O)c(C)c1O)C3=O)-c1c(cc(/C=N/N=C(\S)N(C)C3CCCCC3)c(C(=O)O)c1O)CC2 | 1.4
34 | COc1c2c(c(O)c3c1C(=O)c1c(cc(O)c(C)c1O)C3=O)-c1c(cc(/C=N/N=C(\S)Nc3ccccc3)c(C(=O)O)c1O)CC2 | 4.8
